Measurements from US8710184B2, “Motilin-like peptide compound having transmucosal absorbability imparted thereto” (Daiichi Sankyo Company, Limited, priority 2009, dated 2014).
“And” between values parts separate entries of the source, which are not always exact repeats. Equal values may be shown once. No end group written: not given here.

Assays:
[1] = system: conscious dog's gastrointestinal tract; experiment: Fasting IMC inducing activity in conscious dogs (force transducers); assay type: in vivo
Excerpt: More specifically, dogs under anesthesia were subjected to a surgical operation in which force transducers were sutured to the serous membranes of the gastric antrum, duodenum, jejunum and ileum along the ring-shaped muscle and, thereafter, the strain from each transducer was sent to a recorder via an amplifier.

in vivo = details: male, cynomolgus monkey, iv, 10 ug/kg
Procedure: In this example, native motilin and a motilin derivative compound were administered intravenously to monkeys and their plasma concentrations were measured.
As test animals, 8- to 9-year old male cynomolgus monkeys (N=1-2 per group) were subjected to the following experiment. Native motilin and compound 2 were each dissolved in a 5% mannitol solution to prepare solutions at a concentration of 100 μg/mL; the solutions were administered to the animals at a dose of 0.1 mL/kg through the right cephalic vein by means of a syringe and a needle (both being products of TERUMO). Before administration and 5, 10, 15, 20, 30 and 60 minutes after administration, blood was sampled through the left cephalic vein.
To the collected sample, a 10% EDTA.2Na.2H2O solution was immediately added at a volume ratio of 1:100 and the plasma was separated by centrifugation. The plasma was immediately mixed with a 5,000 IU/mL aprotinin solution at a volume ratio of 1:10 and stored at −80° C. until use in measurement.
Measurement of the plasma concentrations of native motilin and the motilin derivative compound was conducted by the radioimmunoassay (RIA) technique using an anti-motilin antibody. Stated more specifically, after adding an anti-motilin antibody to the plasma sample, [^125I-Tyr7] motilin was added for a competitive reaction to take place. By subsequent addition of a secondary antibody, the motilin binding to the anti-motilin antibody was precipitated and after separating the supernatant, the radioactivity in the precipitating faction was measured with a γ-counter (product of PerkinElmer).
From the obtained profiles for the plasma concentrations of native motilin and the motilin derivative compound, the plasma concentration at time zero (C0) and the area under curve for plasma concentrations (AUC) were calculated as pharmacokinetic parameters; C0 was determined by extrapolation and AUC by the trapezoidal method.

[2] = Pharmacokinetic experiment on pulmonarily administered native motilin and motilin derivative compounds in rats (RIA); assay type: in vivo, rat; details: for Cmax / AUC: male, SD, plasma; for Cmax / AUC / BA: 25 μg/rat; for AUC: trapezoidal method; for BA: relative to AUC of intravenous native motilin
Procedure: As test animals, 7- to 10-wk old male SD rats (purchased from CHARLES RIVER LABORATORIES JAPAN, INC.) that consisted of 3 rats per a group were subjected to the following experiment. Native motilin or motilin derivative compounds were dissolved in an aqueous solution of 0.1 N acetic acid to prepare a solution at a concentration of 1 mg/mL and 25 μL of the solution was administered into the polyethylene tube through the trachea by means of an intratracheal liquid spraying device (MicroSprayer; product of Penn Century). […] In the measurement, the respective derivatives were used as standard substances to construct calibration curves for determining the plasma levels.
Using these values, bioavailability (BA (%)) was calculated by the following equation: BA(%)=[(AUC/Dose)/(AUC(motilin—iv)/Dose(motilin—iv))]×100 • AUC: AUC (ng·min/mL) after pulmonary administration • Dose: dose (μg/kg) in pulmonary administration • AUC (motilin_iv): AUC (ng·min/mL) after intravenous administration of native motilin • Dose (motilin_iv): dose (μg/kg) in intravenous administration of native motilin.

[3] = HPLC fractionation and RIA of rat plasma after pulmonary administration (unaltered form vs metabolites); assay type: in vivo
Procedure: This example was conducted with a view to measuring by RIA the changes that occurred in rats in terms of the plasma concentrations of pulmonarily administered native motilin and motilin derivative compounds. When the RIA technique is applied, all substances that react with the anti-motilin antibody are detected, so aside from unaltered forms, metabolites that react with the antibody are also likely to be detected.
To be more specific, a polyethylene tube (PE-240; product of Clay Adams) was inserted into the trachea of 7-wk old male SD rats (purchased from CHARLES RIVER LABORATORIES JAPAN, INC.); native motilin or compound 2 (MT114) was dissolved in an aqueous solution of 0.1 N acetic acid to prepare a solution at a concentration of 1 mg/mL and 25 μL of the solution was administered into the polyethylene tube through the trachea by means of an intratracheal liquid spraying device (MicroSprayer; product of Penn Century). Five minutes after the administration, blood was sampled through the abdominal aorta and treated as in Comparative Example 1 to separate plasma. […] For each sample, an eluate was sampled at one-minute intervals from just after the sample injection to a 40-minute after sample injection and the immunological activity in each fraction was measured by RIA.

[4] = Pharmacokinetic experiment on intravenously administered native motilin in rats (RIA); assay type: in vivo; details: male, SD, rat, plasma, 100 ug/kg, intravenous, 100 μg/kg
Procedure: Native motilin was administered intravenously to rats and its plasma levels were measured.
As test animals, 7-wk old male SD rats (purchased from CHARLES RIVER LABORATORIES JAPAN, INC.) that consisted of 3 rats per a group were subjected to the following experiment. Native motilin was dissolved in a 5% mannitol solution to prepare a solution at a concentration of 100 μg/mL and this solution was administered to each rat at a dose of 1 mL/kg through the tail vein by means of a syringe and a 26G needle (both being products of TERUMO).

[5] = Pharmacokinetic experiment on intranasally administered native motilin and a motilin derivative compound in monkeys (RIA); assay type: in vivo, cynomolgus monkey; details: intranasal administration; for BA: relative to intravenous AUC of each compound; for AUC / Cmax: male, cynomolgus monkey, plasma, inhaled or intranasal, mean for N = 1-2
Procedure: This example was conducted with a view to measuring by RIA the changes that occurred in monkeys in terms of the plasma concentrations of transnasally administered native motilin and a motilin derivative compound.
In the experiment, 10- to 11-year old male cynomolgus monkeys were used. Native motilin or compound 2 and microcrystalline cellulose were mixed at a ratio of 1:40 to prepare intranasal preparations, 20-mg portions of which were filled into gelatin capsules. Each capsule was administered into the right nasal cavity of each animal by means of an intranasal administration device (product of Hitachi Automotive Systems, Ltd.). Before administration and 5, 10, 15, 20, 30, 60, 120 and 180 minutes after administration, blood was sampled through the cephalic vein. The collected blood sample was treated as in Comparative Example 2 to separate plasma and the concentrations of native motilin and the motilin derivative compound in plasma were measured by RIA. In the measurement, the respective derivatives were used as standard substances to construct calibration curves for determining the plasma levels.
Using these values, bioavailability (BA (%)) was calculated by the following equation: BA(%)=[(AUC/Dose)/(AUC(iv)/Dose(iv))]×100 • AUC: AUC (ng·min/mL) after intranasal administration • Dose: dose (μg/kg) in intranasal administration • AUC (iv): AUC (ng·min/mL) after intravenous administration of each compound • Dose (iv): dose (μg/kg) in intravenous administration of each compound.

[6] = Motilin degradation experiment using a lung homogenate supernatant; assay type: in vitro ADME
Excerpt: To solve this problem, the present inventors first assumed that motilin might be degraded after noninvasive transmucosal administration and performed a motilin degradation experiment using a lung homogenate supernatant.

[7] = Non-Patent Document 18; cited from earlier work
[8] = other: pulmonary administration (intratracheal liquid spray)
[9] = inhaled or intranasal, 25 ug/animal, pulmonary administration

In the case of `CC[C@H](C)[C@H](NC(=O)[C@@H]1CCCN1C(=O)[C@@H](NC(=O)[C@@H](N)Cc1ccccc1)C(C)C)C(=O)N[C@@H](Cc1ccccc1)C(=O)N[C@H](C(=O)N[C@@H](Cc1ccc(O)cc1)C(=O)NCC(=O)N[C@@H](CCC(=O)O)C(=O)N[C@@H](CC(C)C)C(=O)N[C@@H](CCC(N)=O)C(=O)N[C@@H](CCCNC(=N)N)C(=O)N[C@@H](CCSC)C(=O)N[C@@H](CCC(N)=O)C(=O)N[C@@H](CCC(=O)O)C(=O)N[C@@H](CCCCN)C(=O)N[C@@H](CCC(=O)O)C(=O)N[C@@H](CCCNC(=N)N)C(=O)N[C@@H](CC(N)=O)C(=O)N[C@@H](CCCCN)C(=O)NCC(=O)N[C@@H](CCC(N)=O)C(=O)O)[C@@H](C)O` [Native motilin, reference compound], the “IMC Inducing activity” value ([1]; fasting period, intravenous, 0.1 μg/kg) is reported as “Positive”, the “duration of contraction of the duodenum” value ([1]; intravenous 0.1 μg/kg, FIG. 1) is reported as “about 10 minutes” and the “duration of contraction of the gastric antrum” value ([1]; intravenous 0.1 μg/kg, FIG. 1) is reported as “about 10 minutes”. For the same compound, the AUC (in vivo) was 13.1 ng·h/mL, the C0 (in vivo) was 233 ng/mL and the Cmax [2, 8] was 7.84 ± 0.98 ng/mL. It also gave an AUC [2, 8] of 1.58 ng·h/mL, a BA ([2]; pulmonary administration) of 3.3 ± 0.1% and a BA ([2]; pulmonary administration, listed as native motilin) of 3.3%. The “immunological activity peaks in HPLC fractions of plasma” value ([3]; rat, in vivo) was “detected only at the elution point corresponding to the administered compound (in unaltered form)”, the C0 ([4]; by extrapolation, read-out: plasma concentration at time zero (C0)) was 1800 ng/mL and the AUC ([4]; trapezoidal method, read-out: area under curve for plasma concentrations (AUC) (converted)) was 60 ng·h/mL. The BA [5] was 3.6%, the AUC ([5]; 0.49 mg/animal) was 4.02 ng·h/mL and the Cmax ([5]; 0.49 mg/animal) was 13.6 ng/mL. The “degradation in lung homogenate supernatant” value [6] was “found to be degraded”.
FVPIFTYGELQRLQEKERNKPQ [Compound 2] showed an AUC (in vivo) of 15.4 ng·h/mL, a C0 (in vivo) of 273 ng/mL and a Cmax [2, 9] of 26.6 ± 11.3 ng/mL. For the same compound, the AUC [2, 9] was 5.84 ng·h/mL, the BA ([2]; pulmonary administration) was 10.4% and 10.4 ± 4.3% and the “profile of plasma concentration compared with native motilin” value ([2]; pulmonary administration, FIG. 3) was “high peak levels”. For the same compound, the “immunological activity peaks in HPLC fractions of plasma” value ([3]; rats, pulmonary administration, plasma 5 minutes after administration) was “detected only at the elution point corresponding to the administered compound (in unaltered form)”, the “profile of plasma concentration compared with native motilin” value ([5]; FIG. 5) was “a high peak level” and the BA [5] was 5.1%. For the same compound, the AUC [5] was 6.02 ng·h/mL and the Cmax [5] was 23.5 ng/mL.
For atilmotin, the half-life in plasma [7] is given as “about 10 minutes”.
